Source: patent US20240269238A1, “Therapeutic Regimens and Methods for Reducing Body Weight in a Subject with Fatty Liver Disease using a GLP-1R and GCGR Agonist” (Spitfire Pharma LLC, priority 2022, published 2024)

Columns and labels:
[1] = Phase 1 12-week NAFLD study (Example 1): body weight loss; format: in vivo, human; conditions: for weight loss: week 12; for placebo-adjusted weight loss: 12 weeks
Text: (§1) Provided herein is disclosure of a Phase 1, multicenter, randomized, double-blind, placebo-controlled study to assess the effects of Pemvidutide (also termed herein as ALT-801), the safety of Pemvidutide and effects on hepatic fat fraction, anthropometric parameters, lipid metabolism, inflammatory markers and fibrosis markers in diabetic and non-diabetic (type 2 diabetes) overweight and obese (BMI 28.0 kg/m^2) subjects with NAFLD. This study was designed to assess changes in hepatic fat fraction by MRI-PDFF (magnetic resonance imaging-proton density fat fraction) in diabetic and non-diabetic overweight and obese subjects with NAFLD after 12 weeks of ALT-801 treatment. The trial was conducted without adjunctive diet and exercise interventions. The study assessed changes in body weight, lipid metabolism, metabolic markers, and inflammatory markers and safety and tolerability of ALT-801 after 12 weeks of treatment. Subjects were stratified for the presence or absence of diabetes at baseline. Fibroscan and cT1 assessments evaluated changes in liver inflammatory and fibrotic activity at the end of 12 weeks of treatment.
Overweight and obese volunteers with BMI ≥28 kg/m^2 were studied because this is the typical population of individuals with NAFLD, and these subjects are able to better tolerate the predicted Pharmacodynamics (PD) effect of weight loss and could even benefit from treatment. A hepatic fat fraction of 10% has been typical for the evaluation of hepatic fat fraction in subjects with NAFLD. In other words, individuals with a liver fat fraction of 10% or greater are typically diagnosed with NAFLD. Diabetic subjects that require insulin, sulfonylureas or DDP-4 inhibitors for control of diabetes were excluded in this study. Exclusions were instituted that might otherwise affect an accurate assessment of the effects of ALT-801 on safety or PD. The BMI upper limit is set to 45 kg/m^2 as subjects over this BMI are no likely to fit into the MRI scanner.
(§2) The study, described in this example, was carried out in 94 subjects overweight and obese (body mass index [BMI] ≥28.0 kg/m^2) Type 2 diabetic and non-diabetic subjects with nonalcoholic fatty liver disease (NAFLD) over about 4.5 months, including up to a 35-day screening period, and 85-day treatment period and a 25-day follow-up period, with treatment with ALT-801 (a composition comprising SEQ ID NO.: 1, “study medication”) or placebo administered by subcutaneous (SC) injection once weekly for up to twelve (12) doses.
The safety objective of this study was to assess the safety and tolerability of ALT-801 in 18-65 years old subjects with NAFLD (NAFLD without significant fibrosis, defined as FibroScan® controlled attenuation parameter (CAP) ≥280 dB/m and liver stiffness measurement (LSM)<10 kPa (i.e., indicating the absence of significant fibrosis), magnetic resonance imaging derived proton density fat fraction (MRI-PDFF) ≥10%), hemoglobin Alc (HbAlc) of less than 9.5%, and alanine aminotransferase (ALT) or aspartate aminotransferase (AST) values of ≤[…]. The pharmacodynamic (PD) objectives of this study were to evaluate the effects of ALT-801 on hepatic fat fraction, anthropometric parameters, lipid metabolism, metabolic markers, inflammatory markers, fibrosis markers, and lipotoxicity markers. The pharmacokinetic (PK) objectives of this study were to evaluate the effects of ALT-801 and metformin exposure (drug interactions) on the subjects (e.g., ALT-801 and metformin concentrations in blood over time).
(§3) After providing informed consent, subjects underwent a screening period of up to 35 days. Subjects were instructed on how to maintain their normal diets, alcohol consumption and physical activities and not to start any new diets, supplements, or exercise programs at any time while participating in the study. […]

Iron-corrected T1 (cT1) = experiment: Phase 1 12-week NAFLD study (Example 1): iron-corrected T1 (cT1) responder analysis; format: in vivo, human; conditions: week 12
Text: as §1, §2, §3

What does the source list for `CC[C@H](C)[C@H](NC(=O)[C@H](Cc1ccccc1)NC(=O)[C@H](CCC(=O)O)NC(=O)[C@@H]1CCCCNC(=O)CC[C@H](NC(=O)[C@H](CC(=O)O)NC(=O)[C@H](CC(C)C)NC(=O)[C@H](Cc2ccc(O)cc2)NC(=O)[C@H](CCCCN)NC(=O)[C@H](CO)NC(=O)[C@H](Cc2ccc(O)cc2)NC(=O)[C@H](CC(=O)O)NC(=O)[C@H](CO)NC(=O)[C@@H](NC(=O)[C@H](Cc2ccccc2)NC(=O)[C@@H](NC(=O)CNC(=O)[C@H](CCC(N)=O)NC(=O)C(C)(C)NC(=O)[C@@H](N)Cc2c[nH]cn2)[C@@H](C)O)[C@H](C)O)C(=O)N[C@@H](CCCCNC(=O)C2O[C@@H](OCCCCCCCCCCCCCCCCCC(=O)O)C(O)C(O)[C@@H]2O)C(=O)N[C@@H](C)C(=O)N[C@@H](C)C(=O)N1)C(=O)N[C@@H](CCC(N)=O)C(=O)N[C@@H](Cc1c[nH]c2ccccc12)C(=O)N[C@@H](CC(C)C)C(=O)N[C@@H](CC(C)C)C(=O)N[C@@H](CCC(N)=O)C(=O)N[C@H](C(N)=O)[C@@H](C)O` (some centres unmarked) [ALT-801, Pemvidutide]?
weight loss ([1]; all subjects, 1.2 mg): 3.4%; weight loss ([1]; all subjects, 1.8 mg): 4.3%; weight loss ([1]; all subjects, 2.4 mg): 3.7%; weight loss ([1]; diabetic subjects, 1.2 mg): 3.3%; weight loss ([1]; diabetic subjects, 1.8 mg): 3.8%; weight loss ([1]; diabetic subjects, 2.4 mg): 4.4%; placebo-adjusted weight loss ([1]; diabetic subjects): 4.5%; weight loss ([1]; non-diabetic subjects, 1.2 mg): 3.4%; weight loss ([1]; non-diabetic subjects, 1.8 mg): 4.9%; weight loss ([1]; non-diabetic subjects, 2.4 mg): 3.5%; placebo-adjusted weight loss ([1]; non-diabetic subjects): 4.7%; proportion of subjects showing >=80 ms for Iron-corrected T1 (cT1) (Iron-corrected T1 (cT1); 1.2 mg): 87.5%; proportion of subjects showing >=80 ms for Iron-corrected T1 (cT1) (Iron-corrected T1 (cT1); 1.8 mg): 83.3%; proportion of subjects showing >=80 ms for Iron-corrected T1 (cT1) (Iron-corrected T1 (cT1); 2.4 mg): 85.7%
